{"source": "paper PMC6934184", "about": "“Selective DNA-PKcs inhibition extends the therapeutic index of localized radiotherapy and chemotherapy” (The Journal of Clinical Investigation, 2019)", "molecular_target": "T1, STK17B (DRAK2) (Homo sapiens, UniProt O94768)", "T1 construct": "purchased Thermo Fisher Scientific (Life Technologies) SelectScreen", "T1 sequence (O94768 whole entry)": "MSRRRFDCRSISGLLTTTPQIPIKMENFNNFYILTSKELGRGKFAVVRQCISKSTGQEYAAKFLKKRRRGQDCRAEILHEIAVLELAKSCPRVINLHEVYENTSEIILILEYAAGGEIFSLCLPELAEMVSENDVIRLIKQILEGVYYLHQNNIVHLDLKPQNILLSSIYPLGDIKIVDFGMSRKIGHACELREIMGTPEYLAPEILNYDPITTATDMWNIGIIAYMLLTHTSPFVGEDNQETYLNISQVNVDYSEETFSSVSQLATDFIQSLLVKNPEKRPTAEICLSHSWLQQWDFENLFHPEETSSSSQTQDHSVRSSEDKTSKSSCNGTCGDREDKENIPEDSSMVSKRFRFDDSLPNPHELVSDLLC", "experiment": "SelectScreen LanthaScreen", "format": "binding", "settings": "read-out: % displacement", "summary_of_the_method": "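NU5455 was profiled across the SelectScreen Broad panel of kinase activity and binding assays. Z'LYTE reactions such as CSF1R ran at apparent Km ATP, while the Adapta CAMK1 assay used ATP listed as 10. Values are given as percent.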"}
{"smiles": "CN(C(=O)CN1CCOCC1)c1ccc2sc3c(-c4cccc5c(=O)cc(N6CC7CCC(C6)O7)oc45)cccc3c2c1", "note": "[NU5455]", "values": [{"measurement": "inhibition at 1 µM", "result": 2.7, "unit": "%"}]}
